Earlier results as cited in patent US20190383817A1, “PREDICTING RESPONSE TO IMMUNOMODULATORY DRUGS (IMIDS) IN MULTIPLE MYELOMA PATIENTS” (SKYLINEDX B.V., priority 2016, published 2019).

Experiments:
[1] = system: IKAROS transcription factors; settings: compared with thalidomide
MM patients = settings: compared against non-Bortezomib containing regimes such as VAD
CRBN = settings: comparison among thalidomide, lenalidomide, pomalidomide

binding to CRBN (CRBN)	SMILES	efficiency at targeting IKAROS transcription factors for degradation by CRBN [1]	Overall Survival (OS) (MM patients)	Progression Free Survival (PFS) (MM patients)
	Cc1cccc2c1C(=O)N(C1CCC(=O)NC1=O)C2=O (stereo not drawn) [2-(2,6-dioxopiperidin-3-yl)-4-methylisoindoline-1,3-dione]	more efficient		
	CC(C)C[C@H](NC(=O)[C@H](Cc1ccccc1)NC(=O)c1cnccn1)B(O)O [Bortezomib]		significantly prolonged	significantly prolonged
bind similarly to CRBN	Nc1cccc2c1C(=O)N(C1CCC(=O)NC1=O)C2=O (stereo not drawn) [pomalidomide, 4-Amino-2-(2,6-dioxopiperidin-3-yl)isoindole-1,3-dione]	more efficient		
bind similarly to CRBN	O=C1CCC(N2C(=O)c3ccccc3C2=O)C(=O)N1 (stereo not drawn) [thalidomide, 2-(2,6-dioxopiperidin-3-yl)-1H-isoindole-1,3(2H)-dione]			
